How the values were obtained:
[1] = target: T1, human NPY4 receptor (Homo sapiens, UniProt P50391); assay: HTRF cAMP Gi assay, hY4R; type: cell-based; settings: Table 4; CHO-K1 cells
T1 construct: expressed in transfected cells; host or cells: CHO-K1

[2] = target: T2, human NPY2 receptor (Homo sapiens, UniProt P49146); assay: HTRF cAMP Gi assay, hY2R
T2 sequence (P49146 1-381): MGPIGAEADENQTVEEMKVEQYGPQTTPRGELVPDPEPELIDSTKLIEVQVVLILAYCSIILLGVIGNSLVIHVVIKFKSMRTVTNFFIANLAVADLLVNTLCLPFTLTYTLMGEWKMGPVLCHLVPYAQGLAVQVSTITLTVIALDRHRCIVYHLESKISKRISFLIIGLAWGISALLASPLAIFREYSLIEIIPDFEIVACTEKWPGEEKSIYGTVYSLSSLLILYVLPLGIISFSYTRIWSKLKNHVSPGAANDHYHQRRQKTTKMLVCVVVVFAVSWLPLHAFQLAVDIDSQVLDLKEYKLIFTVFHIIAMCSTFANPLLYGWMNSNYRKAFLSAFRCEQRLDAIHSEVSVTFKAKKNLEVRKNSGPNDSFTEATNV
Method: (§1) Briefly, the production of intracellular cAMP will generate a competition between unlabeled cAMP and exogenously added d2-cAMP for anti-cAMP antibodies conjugated to cryptate. CHO-K1 cells stably expressing the human NPY1, NPY2, NPY4 and NPY5 receptors were used with the cells brought to life from a frozen stock immediately before assay performance. 2000 cells per well were applied for all four NPY receptor subtype assays. A 384-well format was used applying a total volume of 20 μl using 5 μl cells, 2.5 μl peptide agonist, 2.5 μl forskolin and 5 μl of each of the fluorophores. […] Concentration-response evaluation of compounds was performed with 11 concentrations of agonist peptides (covering 3 decades). EC50 values were calculated by nonlinear regression using sigmoid concentration-response with variable slope.

[3] = target: T3, human NPY1 receptor (Homo sapiens, UniProt P25929); assay: HTRF cAMP Gi assay, hY1R; type: cell-based; settings: Table 4; CHO-K1 cells
T3 construct: expressed in transfected cells; host or cells: CHO-K1
T3 sequence (P25929 1-384): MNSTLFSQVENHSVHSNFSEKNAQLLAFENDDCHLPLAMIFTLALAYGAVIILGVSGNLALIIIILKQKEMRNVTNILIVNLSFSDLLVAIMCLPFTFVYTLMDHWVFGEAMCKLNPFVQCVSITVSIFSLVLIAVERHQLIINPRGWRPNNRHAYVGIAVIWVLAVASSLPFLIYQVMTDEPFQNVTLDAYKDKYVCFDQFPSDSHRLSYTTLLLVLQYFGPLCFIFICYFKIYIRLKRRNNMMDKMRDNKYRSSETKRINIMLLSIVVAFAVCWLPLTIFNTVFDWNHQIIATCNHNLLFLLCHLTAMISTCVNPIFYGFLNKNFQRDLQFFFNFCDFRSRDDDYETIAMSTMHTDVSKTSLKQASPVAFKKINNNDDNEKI
Method: as §1

[4] = target: T4, human NPY5 receptor (Homo sapiens, UniProt Q15761); assay: HTRF cAMP Gi assay, hY5R
T4 sequence (Q15761 1-445): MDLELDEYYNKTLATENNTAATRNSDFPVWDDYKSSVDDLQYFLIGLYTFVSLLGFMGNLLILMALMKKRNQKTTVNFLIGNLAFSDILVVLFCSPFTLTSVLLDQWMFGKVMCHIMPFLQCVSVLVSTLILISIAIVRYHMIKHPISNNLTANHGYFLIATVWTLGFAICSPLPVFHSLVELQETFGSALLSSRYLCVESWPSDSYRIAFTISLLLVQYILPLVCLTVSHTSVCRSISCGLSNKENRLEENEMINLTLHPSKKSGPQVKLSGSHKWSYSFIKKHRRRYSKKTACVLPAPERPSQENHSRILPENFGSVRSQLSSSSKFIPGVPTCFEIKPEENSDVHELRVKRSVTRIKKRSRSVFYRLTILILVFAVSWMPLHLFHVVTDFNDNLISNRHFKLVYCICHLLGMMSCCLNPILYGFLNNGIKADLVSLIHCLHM

[5] = tested on: normal NMRI mice; assay: Effect on acute food intake in normal NMRI mice; type: in vivo; settings: male NMRI mice, 10 nmol/kg subcutaneously once
Procedure, shortened: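 Male NMRI mice acclimatized in an HM-2 real-time food intake monitoring system, fasted 6 h before dark phase. Single subcutaneous dose of 10 nmol/kg peptide given 1 h before dark; n=7-8. Food intake expressed as % of vehicle group (50 mM phosphate pH7, 5% Mannitol).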

[6] = target: T5, Human Neuropeptide Y2 Receptor (Homo sapiens, UniProt P49146); assay: Radioligand binding competition assay (RLB); settings: Table 3; human 125I-PYY (1-36) 0.02 nM, Y2 receptor membranes; read-out: Ki
T5 construct: purchased CHEMICON HTS066M
T5 sequence (P49146 1-381): T2 sequence (P49146 1-381)
Procedure, shortened: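 IC50 values come from nonlinear regression of sigmoidal dose-response curves of filter-bound radioactivity. Peptides competed with radioligand at human Y2 receptor membranes (0.5 μg protein/well) for 2 h at room temperature in pH 7.4 HEPES buffer containing Mg2+, Ca2+ and 0.2% ovalbumin.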

T1 sequence (P50391 whole entry): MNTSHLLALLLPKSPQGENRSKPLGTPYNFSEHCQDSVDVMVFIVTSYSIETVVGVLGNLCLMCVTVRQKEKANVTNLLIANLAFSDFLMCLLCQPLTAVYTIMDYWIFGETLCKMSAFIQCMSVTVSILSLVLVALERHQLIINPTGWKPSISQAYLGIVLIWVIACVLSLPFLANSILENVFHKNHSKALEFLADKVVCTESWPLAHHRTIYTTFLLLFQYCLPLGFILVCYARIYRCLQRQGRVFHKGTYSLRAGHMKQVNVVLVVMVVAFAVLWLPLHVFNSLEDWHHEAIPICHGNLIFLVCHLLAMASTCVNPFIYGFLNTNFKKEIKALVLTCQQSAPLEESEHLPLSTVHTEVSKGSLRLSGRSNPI

EC50 [1] [nM]	EC50 [2] [nM]	EC50 [3] [nM]	EC50 [4] [nM]	Ki [6] [nM]	Structure (SMILES)	Acute Food Intake 24 h [% vehicle] [5] [% vehicle]
> 5000	0.334	> 5000	> 5000	–	CC[C@H](C)[C@H](NC(=O)[C@H](CCC(=O)O)NC(=O)[C@H](CCC(=O)O)NC(=O)[C@@H]1CCCN1C(=O)[C@H](CO)NC(=O)[C@H](C)NC(=O)[C@H](CC(=O)O)NC(=O)[C@H](CCC(=O)O)NC(=O)[C@H](CCC(=O)O)NC(=O)[C@@H]1CCCN1C(=O)[C@H](CCCCNC(=O)COCCOCCNC(=O)COCCOCCNC(=O)CC[C@H](NC(=O)CCCCCCCCCCCCCCCCC(=O)O)C(=O)O)NC(=O)[C@H](CCC(=O)O)NC(=O)[C@@H]1CCCN1C(=O)[C@H](C)NC(=O)CC(C)C)C(=O)N[C@@H](CCC(N)=O)C(=O)N[C@@H](CCC(N)=O)C(=O)N[C@@H](Cc1ccc(O)cc1)C(=O)N[C@@H](Cc1ccc(O)cc1)C(=O)N[C@H](C(=O)N[C@@H](CO)C(=O)N[C@@H](CC(C)C)C(=O)N[C@@H](CCCNC(=N)N)C(=O)N[C@@H](Cc1c[nH]cn1)C(=O)N[C@@H](Cc1ccc(O)cc1)C(=O)N[C@@H](Cc1ccc(O)cc1)C(=O)N[C@@H](CC(N)=O)C(=O)N[C@@H](Cc1c[nH]c2ccccc12)C(=O)N[C@@H](CC(C)C)C(=O)N[C@H](C(=O)N[C@@H](CCCNC(=N)N)C(=O)N[C@@H](CCC(N)=O)C(=O)N[C@@H](CCCNC(=N)N)C(=O)N[C@@H](Cc1ccc(O)cc1)C(N)=O)[C@@H](C)O)C(C)C [Compound 11, N{alpha-4}-(3-methylbutanoyl)-N{epsilon-7}-[2-(2-{2-[2-(2-{2-[(4S)-4-carboxy-4-(17-carboxyheptadecanamido)butanamido]ethoxy}ethoxy)acetamido]ethoxy}ethoxy)acetamido]-[4A,7K,9E,17I,18Q,19Q,22V,28Y,30W,31L]hPYY (4-36)]	42
> 5000	0.167	> 5000	> 5000	3.71	CC(C)CC(=O)N[C@@H](C)C(=O)N1CCC[C@H]1C(=O)N[C@@H](CCC(=O)O)C(=O)N[C@@H](CCCCNC(=O)COCCOCCNC(=O)COCCOCCNC(=O)CC[C@H](NC(=O)CCCCCCCCCCCCCCCCC(=O)O)C(=O)O)C(=O)N1CCC[C@H]1C(=O)N[C@@H](CCC(=O)O)C(=O)N[C@@H](CCC(=O)O)C(=O)N[C@@H](CC(=O)O)C(=O)N[C@@H](C)C(=O)N[C@@H](CCC(=O)O)C(=O)N1CCC[C@H]1C(=O)N[C@@H](CCC(=O)O)C(=O)N[C@@H](CCC(=O)O)C(=O)N[C@@H](CC(C)C)C(=O)N[C@@H](CCC(N)=O)C(=O)N[C@@H](CCC(N)=O)C(=O)N[C@@H](Cc1ccc(O)cc1)C(=O)N[C@@H](Cc1ccc(O)cc1)C(=O)N[C@H](C(=O)N[C@@H](CO)C(=O)N[C@@H](CC(C)C)C(=O)N[C@@H](CCCNC(=N)N)C(=O)N[C@@H](Cc1c[nH]cn1)C(=O)N[C@@H](Cc1ccc(O)cc1)C(=O)N[C@@H](Cc1ccc(O)cc1)C(=O)N[C@@H](CC(N)=O)C(=O)N[C@@H](Cc1c[nH]c2ccccc12)C(=O)N[C@@H](CC(C)C)C(=O)N[C@H](C(=O)N[C@@H](CCCNC(=N)N)C(=O)N[C@@H](CCC(N)=O)C(=O)N[C@@H](CCCNC(=N)N)C(=O)N[C@@H](Cc1ccc(O)cc1)C(N)=O)[C@@H](C)O)C(C)C [Compound 18, N{alpha-4}-(3-methylbutanoyl)-N{epsilon-7}-[2-(2-{2-[2-(2-{2-[(4S)-4-carboxy-4-(17-carboxyheptadecanamido)butanamido]ethoxy}ethoxy)acetamido]ethoxy}ethoxy)acetamido]-[4A,7K,9E,13E,18Q,19Q,22V,28Y,30W,31L]hPYY (4-36)]	58
> 5000	0.159	> 5000	> 5000	3.22	CC(C)CC(=O)N[C@@H](C)C(=O)N1CCC[C@H]1C(=O)N[C@@H](CCC(=O)O)C(=O)N[C@@H](CCCCNC(=O)COCCOCCNC(=O)COCCOCCNC(=O)CC[C@H](NC(=O)CCCCCCCCCCCCCCCCC(=O)O)C(=O)O)C(=O)N1CCC[C@H]1C(=O)N[C@@H](CCC(=O)O)C(=O)N[C@@H](CCC(=O)O)C(=O)N[C@@H](CCC(=O)O)C(=O)N[C@@H](C)C(=O)N[C@H](C(=O)N1CCC[C@H]1C(=O)N[C@@H](CCC(=O)O)C(=O)N[C@@H](CCC(=O)O)C(=O)N[C@@H](CC(C)C)C(=O)N[C@@H](CCC(N)=O)C(=O)N[C@@H](CCCNC(=N)N)C(=O)N[C@@H](Cc1ccc(O)cc1)C(=O)N[C@@H](Cc1ccc(O)cc1)C(=O)N[C@H](C(=O)N[C@@H](CO)C(=O)N[C@@H](CC(C)C)C(=O)N[C@@H](CCCNC(=N)N)C(=O)N[C@@H](Cc1c[nH]cn1)C(=O)N[C@@H](Cc1ccc(O)cc1)C(=O)N[C@@H](Cc1ccc(O)cc1)C(=O)N[C@@H](CC(N)=O)C(=O)N[C@@H](Cc1c[nH]c2ccccc12)C(=O)N[C@@H](CC(C)C)C(=O)N[C@H](C(=O)N[C@@H](CCCNC(=N)N)C(=O)N[C@@H](CCC(N)=O)C(=O)N[C@@H](CCCNC(=N)N)C(=O)N[C@@H](Cc1ccc(O)cc1)C(N)=O)[C@@H](C)O)C(C)C)[C@@H](C)O [Compound 41, N{alpha-4}-(3-methylbutanoyl)-N{epsilon-7}-[2-(2-{2-[2-(2-{2-[(4S)-4-carboxy-4-(17-carboxyheptadecanamido)butanamido]ethoxy}ethoxy)acetamido]ethoxy}ethoxy)acetamido]-[4A,7K,9E,11E,13T,18Q,22V,28Y,30W,31L]hPYY (4-36)]	44
> 5000	0.107	> 5000	> 5000	1.96	CC(C)CC(=O)N[C@@H](C)C(=O)N1CCC[C@H]1C(=O)N[C@@H](CCC(=O)O)C(=O)N[C@@H](CCCCNC(=O)COCCOCCNC(=O)COCCOCCNC(=O)CC[C@H](NC(=O)CCCCCCCCCCCCCCCCC(=O)O)C(=O)O)C(=O)N1CCC[C@H]1C(=O)N[C@@H](CCC(=O)O)C(=O)N[C@@H](CCC(=O)O)C(=O)N[C@@H](CC(=O)O)C(=O)N[C@@H](C)C(=O)N[C@H](C(=O)N1CCC[C@H]1C(=O)N[C@@H](CCC(=O)O)C(=O)N[C@@H](CCC(=O)O)C(=O)N[C@@H](CC(C)C)C(=O)N[C@@H](CCC(N)=O)C(=O)N[C@@H](CCCCN)C(=O)N[C@@H](Cc1ccc(O)cc1)C(=O)N[C@@H](Cc1ccc(O)cc1)C(=O)N[C@H](C(=O)N[C@@H](CO)C(=O)N[C@@H](CC(C)C)C(=O)N[C@@H](CCCNC(=N)N)C(=O)N[C@@H](Cc1c[nH]cn1)C(=O)N[C@@H](Cc1ccc(O)cc1)C(=O)N[C@@H](Cc1ccc(O)cc1)C(=O)N[C@@H](CC(N)=O)C(=O)N[C@@H](Cc1c[nH]c2ccccc12)C(=O)N[C@@H](CC(C)C)C(=O)N[C@H](C(=O)N[C@@H](CCCNC(=N)N)C(=O)N[C@@H](CCC(N)=O)C(=O)N[C@@H](CCCNC(=N)N)C(=O)N[C@@H](Cc1ccc(O)cc1)C(N)=O)[C@@H](C)O)C(C)C)[C@@H](C)O [Compound 231, N{alpha-4}-(3-methylbutanoyl)-N{epsilon-7}-[2-(2-{2-[2-(2-{2-[(4S)-4-carboxy-4-(17-carboxyheptadecanamido)butanamido]ethoxy}ethoxy)acetamido]ethoxy}ethoxy)acetamido]-[4A,7K,9E,13T,18Q,19K,22V,28Y,30W,31L]hPYY (4-36)]	–
